Values quoted from earlier work, collected in patent US20210023023A1, “LIPOSOMAL NUTRACEUTICAL COMPOSITIONS AND METHODS OF MAKING THE SAME” (VASAYO, LLC, priority 2019, published 2021).

Conditions: in studies

C=C(C)[C@@H]1CCC(C)=C[C@H]1c1c(O)cc(CCCCC)cc1O [CBD, cannabidiol]
anti-inflammatory effects, potency relative to aspirin: several hundred times more potent than aspirin
